Laboratory results taken from patent US20140107151A1, “TYROSINE KINASE INHIBITORS” (Principal Biopharma Inc., priority 2011, published 2014).

Target: human recombinant Btk (Homo sapiens, UniProt Q06187)
Assay: Btk Enzymatic Activity Assay (Caliper-based kinase assay)
Type: biochemical
Settings: human recombinant Btk 2 nM, ATP 40 μM, peptide substrate 1 μM, room temperature for 3 h
Procedure: A Caliper-based kinase assay (Caliper Life Sciences, Hopkinton, Mass.) was used to measure inhibition of Btk kinase activity of a compound of Formula (I). […] The reaction was then terminated with EDTA, final concentration 20 mM and the phosphorylated reaction product was quantified on a Caliper Desktop Profiler (Caliper LabChip 3000).

Chain of human recombinant Btk (Q06187 whole entry): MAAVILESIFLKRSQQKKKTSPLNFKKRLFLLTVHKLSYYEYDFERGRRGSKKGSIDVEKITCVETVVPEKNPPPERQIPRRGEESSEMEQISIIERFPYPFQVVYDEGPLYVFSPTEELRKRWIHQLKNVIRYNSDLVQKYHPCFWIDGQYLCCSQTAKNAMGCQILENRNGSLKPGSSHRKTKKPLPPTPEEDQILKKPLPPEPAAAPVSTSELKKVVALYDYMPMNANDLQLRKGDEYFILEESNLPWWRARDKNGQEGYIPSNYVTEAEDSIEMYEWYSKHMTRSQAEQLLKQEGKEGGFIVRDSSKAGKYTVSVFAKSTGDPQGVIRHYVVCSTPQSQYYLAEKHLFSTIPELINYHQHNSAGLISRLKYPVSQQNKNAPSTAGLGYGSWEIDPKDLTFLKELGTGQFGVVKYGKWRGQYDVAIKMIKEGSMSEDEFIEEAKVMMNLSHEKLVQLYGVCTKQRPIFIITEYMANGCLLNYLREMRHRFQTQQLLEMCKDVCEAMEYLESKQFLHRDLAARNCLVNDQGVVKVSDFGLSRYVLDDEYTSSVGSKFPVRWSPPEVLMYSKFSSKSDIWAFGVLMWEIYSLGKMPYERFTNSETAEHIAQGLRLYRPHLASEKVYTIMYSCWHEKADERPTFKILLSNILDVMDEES

SMILES	IC50 [nM]
N#CC(=CC1CC1)C(=O)N1CCC(c2cc3[nH]nc(N)c3c(-c3ccc(Oc4ccccc4)cc3)n2)CC1 [Example 8, 2-(4-(3-amino-4-(4-phenoxyphenyl)-1H-pyrazolo[4,3-c]pyridin-6-yl)piperidine-1-carbonyl)-3-cyclopropylacrylonitrile]	2
N#CC(=CC1CC1)C(=O)N1CCCC(c2cc3[nH]nc(N)c3c(-c3ccc(Oc4ccccc4)cc3)n2)C1 (centres unmarked) [Example 9, 2-(3-(3-amino-4-(4-phenoxyphenyl)-1H-pyrazolo[4,3-c]pyridin-6-yl)piperidine-1-carbonyl)-3-cyclopropylacrylonitrile]	1.1
N#CC(=CC1CC1)C(=O)N1CCCC1Cc1cc2[nH]nc(N)c2c(-c2ccc(Oc3ccccc3)cc2)n1 (centres unmarked) [Example 10, 2-(2-((3-amino-4-(4-phenoxyphenyl)-1H-pyrazolo[4,3-c]pyridin-6-yl)-methyl)pyrrolidine-1-carbonyl)-3-cyclopropylacrylonitrile]	2
CC(C)C=C(C#N)C(=O)N1CCC(Cc2cc3[nH]nc(N)c3c(-c3ccc(Oc4ccccc4)cc3)n2)C1 (centres unmarked) [Example 10A, 2-(3-((3-amino-4-(4-phenoxyphenyl)-1H-pyrazolo[4,3-c]pyridin-6-yl)methyl)-pyrrolidine-1-carbonyl)-4-methylpent-2-enenitrile]	1.2
CC(C)C=C(C#N)C(=O)N1CCC[C@@H](c2cc3[nH]nc(N)c3c(-c3ccc(Oc4ccccc4)cc3)n2)C1 [Example 11, (R)-2-(3-(3-amino-4-(4-phenoxyphenyl)-1H-pyrazolo[4,3-c]pyridin-6-yl)piperidine-1-carbonyl)-4-methylpent-2-enenitrile]	9.3
CC(C)C=C(C#N)C(=O)N1CCC[C@H](c2cc3[nH]nc(N)c3c(-c3ccc(Oc4ccccc4)cc3)n2)C1 [Example 11A, (S)-2-(3-(3-amino-4-(4-phenoxyphenyl)-1H-pyrazolo[4,3-c]pyridin-6-yl)piperidine-1-carbonyl)-4-methylpent-2-enenitrile]	15.5

Other lines, results leading:

IC50 [nM]	SMILES
13	CC(C)C=C(C#N)C(=O)N1CCC[C@H]1c1cc2[nH]nc(N)c2c(-c2ccc(Oc3ccccc3)cc2)n1 [Example 11B, (S)-2-(2-(3-amino-4-(4-phenoxyphenyl)-1H-pyrazolo[4,3-c]pyridin-6-yl)pyrrolidine-1-carbonyl)-4-methylpent-2-enenitrile]
13.6	CC(C)C=C(C#N)C(=O)N1CCC[C@@H]1c1cc2[nH]nc(N)c2c(-c2ccc(Oc3ccccc3)cc2)n1 [Example 11C, (R)-2-(2-(3-amino-4-(4-phenoxyphenyl)-1H-pyrazolo[4,3-c]pyridin-6-yl)pyrrolidine-1-carbonyl)-4-methylpent-2-enenitrile]
